The test system of assay [1] is pepper phytophthora blight (Phytopthora capsici). Kind of assay: Suppression of pepper phytophthora blight on leaves. Format: in vivo. The settings on record: for Outbreak of the phytophthora blight on the leaves: drench-treated to the roots; for Lesion outbreak rate: pepper leaves. How it is done: The peppers were raised in the same method as Example 3, and then, the test compounds were dissolved in 20% methanol to make a stock solution, and a stock was diluted to the concentrations of 0.1, 1.0, and 10.0 ppm. The test solutions were sprayed on the leaves or drench-treated on the leaves. After 7 days, the pathogen of plant bacterial rot (Pectobacterium carotovorum SCC1) was cultured in a TSA medium for 27 hours, and then, wetted on an 8 mm diameter paper disc in the concentration of 10^8 cfu/mL. The paper disc was located in the center of the leaves that were cut roundly, and then, after about 7 days, the lesion area was measured. In the case of phytophthora, the potato agar medium cultured with the phytophthora (Phytophthora capsici) was cut in the internal diameter size of 5 mm with a cork borer, and then inoculated to the leaves. After 7 days, the lesion area was observed. In the case of a bacterial rot, when Compounds 6, 89, 93, and 95 were sprayed on the pepper leaves, the bacterial rot was not found in the concentration of 1 or 10 ppm as compared with the non-treated group. […] The Suppression of lesion formation on the leaves when these compounds were drench-treated to the roots can be explained as it was resulted from that systemic disease resistance was induced in the whole plant. These test results are illustrated in the photographs of FIGS. 5 to 9.

Assay [2] has as its system tobacco bacterial rot (Pectobacterium carotovorum). Kind of assay: Suppression of tobacco bacterial rot. Format: in vivo, Pectobacterium carotovorum SCC1. In a few lines: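 Test compounds at 1, 10 and 100 ppm (from 20% methanol stock) were applied to tobacco leaves; 7 days later plants were sprayed with Pectobacterium carotovorum SCC1 at 10^8 cfu/mL and kept 3 days at 30° C. Lesion area scored visually as 0–100%.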

Assay [3] deals with cucumber leaves. Kind of assay: Plant growth promotion, width of cucumber leaf. The following applies: non-treated = 100.0 (92.1 mm), unit of the source corrected. Format: in vivo. As to the method:
The active ingredients (Compounds 5 to 8, 14, and 15) were drenched to the leaves of a plant (pepper, potato, tomato, tobacco, cucumber, and Chinese cabbage), and then, after 7 days, the plant lengths were measured. Since then, the plant disease pathogen was inoculated, and then, after 3 to 5 days, the sizes of the plant leaves were measured and compared with the control group to obtain the relative growth degrees.

Setting [4] is: drench-treated, 1.0 or 10.0 ppm.

Square brackets hold non-standard residues; d marks the D form. Peptide text beside a SMILES is read from it. * marks the point of attachment. Trt = c1ccc(C(c2ccccc2)(c2ccccc2)*)cc1; Boc = CC(C)(C)OC(=O)*; Bz = O=C(c1ccccc1)*; OBn = c1ccc(CO*)cc1; OAll = C=CCO*

Data on 30 compounds can be found in patent US20150119251A1, “AGRICULTURAL PLANT-PROTECTING AGENTS CONTAINING DIPEPTIDE DERIVATIVE AS ACTIVE INGREDIENT” (REPUBLIC OF KOREA (RURAL DEVELOPMENT ADMINISTRATION), priority 2012, published 2015).

With `COC(=O)CNC(=O)[C@@H](N)CC(C)C` [Compound 4] (H-Leu-Gly-OMe), the “Outbreak of the phytophthora blight on the leaves” value (shortened to “Outbreak … on the leaves”) in assay [1] is reported as “significantly decreased”. Also, the Lesion outbreak rate in assay [2] (Table 3, tobacco, 1 ppm) was found to be 47%; in assay [2] (Table 3, tobacco, 10 ppm) it was 80%; in assay [2] (Table 3, tobacco, 100 ppm), 90%.

In the case of `COC(=O)CNC(=O)[C@@H](NC(=O)OC(C)(C)C)C(C)C` [Compound 5] (Boc-Val-Gly-OMe), the Lesion outbreak rate in assay [2] (Table 3, tobacco, 1 ppm) came out at 73%; in assay [2] (Table 3, tobacco, 10 ppm) it was 40%; in assay [2] (Table 3, tobacco, 100 ppm), 7.7%. For the same compound, the Width of cucumber leaf (relative value to the non-treated group) in assay [3] (1.0 ppm) was 100%; in assay [3] (10 ppm), 111%; in assay [3] (100 ppm), 121%.

For `COC(=O)C(CC(C)C)NC(=O)C(NC(=O)OC(C)(C)C)C(C)O` (stereo not drawn) [Compound 7] (Boc-Thr-Leu-OMe; configuration not given here), the Lesion outbreak rate in assay [2] (Table 3, tobacco, 1 ppm) was 40%; in assay [2] (Table 3, tobacco, 10 ppm), 27%; in assay [2] (Table 3, tobacco, 100 ppm), 20%. Moreover, the Width of cucumber leaf (relative value to the non-treated group) in assay [3] (1.0 ppm) turned out to be 110%; in assay [3] (10 ppm), 121%; in assay [3] (100 ppm) it was 121%.

As to `COC(=O)C(CC(C)C)NC(=O)C(N)C(C)O` (stereo not drawn) [Compound 8] (H-Thr-Leu-OMe; configuration not given here), the Lesion outbreak rate in assay [2] (Table 3, tobacco, 1 ppm) was 43%; in assay [2] (Table 3, tobacco, 10 ppm) it was 57%; in assay [2] (Table 3, tobacco, 100 ppm), 0%. Moreover, the Width of cucumber leaf (relative value to the non-treated group) was determined as 122% in assay [3] (1.0 ppm), 123% in assay [3] (10 ppm) and 120% in assay [3] (100 ppm).

Regarding `COC(=O)[C@H](C)NC(=O)CNC(=O)OC(C)(C)C` [Compound 14] (Boc-Gly-Ala-OMe), the Lesion outbreak rate in assay [2] (Table 6, tobacco, 1 ppm) is 50%; in assay [2] (Table 6, tobacco, 10 ppm) it was 78%; in assay [2] (Table 6, tobacco, 100 ppm), 35%. In addition, the Width of cucumber leaf (relative value to the non-treated group) in assay [3] (1.0 ppm) stood at 104%; in assay [3] (10 ppm) it was 103%; in assay [3] (100 ppm), 113%.

Regarding `COC(=O)[C@@H]1CCCN1C(=O)[C@@H](CSC(c1ccccc1)(c1ccccc1)c1ccccc1)NC(=O)OC(C)(C)C` [Compound 77] (Boc-[dC](Trt)-Pro-OMe), the Lesion outbreak rate in assay [1] (0.1 ppm) is given as 46 area %; in assay [1] (1.0 ppm), 36 area %.

Consider `COC(=O)[C@@H]1CCCN1C(=O)[C@H](N)CS` [Compound 78] (H-[dC]-Pro-OMe), for which the figures for the Lesion outbreak rate in assay [1] (0.1 ppm) and in assay [1] (1.0 ppm) were 58 area % and 47 area %, respectively.

As for `COC(=O)CNC(=O)[C@H](CO)NC(=O)OC(C)(C)C` [Compound 81] (Boc-Ser-Gly-OMe), the Lesion outbreak rate in assay [1] (0.1 ppm) is 68 area %; in assay [1] (1.0 ppm) it was 58 area %.

Regarding `CCOC(=O)[C@H](C)NC(=O)CNC(=O)OC(C)(C)C` [Compound 82] (Boc-Gly-Ala-OEt), the Lesion outbreak rate was determined as 74 area % in assay [1] (0.1 ppm) and 60 area % in assay [1] (1.0 ppm).

Take `CCOC(=O)[C@H](Cc1ccccc1)NC(=O)[C@H](CC(C)C)NC(=O)OC(C)(C)C` [Compound 83] (Boc-Leu-Phe-OEt): the Lesion outbreak rate in assay [1] (0.1 ppm) was determined as 80 area %; in assay [1] (1.0 ppm), 57 area %.

As to `COC(=O)[C@@H]1CCCN1C(=O)[C@H](Cc1c[nH]c2ccccc12)NC(=O)OC(C)(C)C` [Compound 84] (Boc-Trp-Pro-OMe), the Lesion outbreak rate in assay [1] (0.1 ppm) was 35 area %; in assay [1] (1.0 ppm) it was 33 area %.

In the case of `COC(=O)[C@@H]1CCCN1C(=O)[C@H](C)NC(=O)OC(C)(C)C` [Compound 86] (Boc-Ala-Pro-OMe), the Lesion outbreak rate in assay [1] (0.1 ppm) is recorded as 58 area %; in assay [1] (1.0 ppm) it was 83 area %.

On to `COC(=O)[C@@H](NC(=O)CNC(=O)OC(C)(C)C)C(C)C` [Compound 87] (Boc-Gly-Val-OMe), for which the Lesion outbreak rate in assay [1] (0.1 ppm) is 62 area %; in assay [1] (1.0 ppm), 36 area %.

On to `COC(=O)[C@@H](NC(=O)CN)C(C)C` [Compound 88] (H-Gly-Val-OMe), for which the Lesion outbreak rate in assay [1] (0.1 ppm) came to 35 area %; in assay [1] (1.0 ppm), 33 area %.

Regarding `C=CCOC(=O)C[C@H](NC(=O)OC(C)(C)C)C(=O)N[C@@H](Cc1ccccc1)C(=O)OC` [Compound 92] (Boc-Asp(OAll)-Phe-OMe), the Lesion outbreak rate in assay [1] (0.1 ppm) amounted to 25 area %; in assay [1] (1.0 ppm), 38 area %.

In the case of `COC(=O)[C@H](Cc1ccccc1)NC(=O)[C@H](CC(=O)OCc1ccccc1)NC(=O)OC(C)(C)C` [Compound 94] (Boc-Asp(OBn)-Phe-OMe), the “Outbreak … on the leaves” value in assay [1] was “significantly decreased”. Besides, the “Lesion formation, pepper phytophthora test” value in assay [1] (setting [4]) was “no the lesion formations”. The Lesion outbreak rate turned out to be 12 area % in assay [1] (0.1 ppm) and 6.8 area % in assay [1] (1.0 ppm).

Consider `COC(=O)C[C@H](NC(C)=O)C(=O)N[C@@H](Cc1ccccc1)C(=O)OC` [Compound 96] (Ac-Asp(OMe)-Phe-OMe), for which the figures for the Lesion outbreak rate in assay [1] (0.1 ppm) and in assay [1] (1.0 ppm) were 32 area % and 23 area %, respectively.

As to `COC(=O)C[C@H](NC(=O)c1ccccc1)C(=O)N[C@@H](Cc1ccccc1)C(=O)OC` [Compound 97] (Bz-Asp(OMe)-Phe-OMe), the figures for the Lesion outbreak rate in assay [1] (0.1 ppm) and in assay [1] (1.0 ppm) were 22 area % and 25 area %, respectively.

In the case of `C=CCOC(=O)C[C@H](NC(C)=O)C(=O)N[C@@H](Cc1ccccc1)C(=O)OC` [Compound 98] (Ac-Asp(OAll)-Phe-OMe), the Lesion outbreak rate in assay [1] (0.1 ppm) is listed as 16 area %; in assay [1] (1.0 ppm), 12 area %.

`C=CCOC(=O)C[C@H](NC(=O)c1ccccc1)C(=O)N[C@@H](Cc1ccccc1)C(=O)OC` [Compound 99] (Bz-Asp(OAll)-Phe-OMe): the Lesion outbreak rate in assay [1] (0.1 ppm) came to 36 area %; in assay [1] (1.0 ppm) it was 18 area %.

As to `COC(=O)[C@H](Cc1ccccc1)NC(=O)[C@H](CC(=O)OCc1ccccc1)NC(C)=O` [Compound 100] (Ac-Asp(OBn)-Phe-OMe), the Lesion outbreak rate in assay [1] (0.1 ppm) is recorded as 19 area %; in assay [1] (1.0 ppm) it was 21 area %.

On to `COC(=O)[C@H](Cc1ccccc1)NC(=O)[C@H](CC(=O)OCc1ccccc1)NC(=O)c1ccccc1` [Compound 101] (Bz-Asp(OBn)-Phe-OMe), for which the Lesion outbreak rate in assay [1] (0.1 ppm) amounted to 11 area %; in assay [1] (1.0 ppm), 27 area %.

As for `COC(=O)[C@H](Cc1ccccc1)NC(=O)[C@H](CC(=O)O)NC(C)=O` [Compound 102] (Ac-Asp-Phe-OMe), the values for the Lesion outbreak rate in assay [1] (0.1 ppm) and in assay [1] (1.0 ppm) were 20 area % and 15 area %, respectively.

Turning to `COC(=O)CNC(=O)[C@@H](NC(C)=O)C(C)C` [Compound 103] (Ac-Val-Gly-OMe), the Lesion outbreak rate in assay [1] (0.1 ppm) came out at 15 area %; in assay [1] (1.0 ppm) it was 28 area %.

With `COC(=O)CNC(=O)[C@H](CC(C)C)NC(C)=O` [Compound 104] (Ac-Leu-Gly-OMe), the Lesion outbreak rate stood at 22 area % in assay [1] (0.1 ppm) and 18 area % in assay [1] (1.0 ppm).

For `COC(=O)CNC(=O)[C@@H]1CCCN1C(C)=O` [Compound 105] (Ac-Pro-Gly-OMe), the Lesion outbreak rate is 18 area % in assay [1] (0.1 ppm) and 21 area % in assay [1] (1.0 ppm).

Regarding `COC(=O)[C@@H]1CCCN1C(=O)CNC(=O)OC(C)(C)C` [Compound 106] (Boc-Gly-Pro-OMe), the figures for the Lesion outbreak rate in assay [1] (0.1 ppm) and in assay [1] (1.0 ppm) were 25 area % and 26 area %, respectively.

For `COC(=O)[C@@H]1CCCN1C(=O)[C@@H](N)Cc1c[nH]c2ccccc12` [Compound 107] (H-Trp-Pro-OMe), the “Effect on suppressing the outbreak of pepper phytophthora blight or bacterial rot as compared with the non-treated control group” value in assay [1] (directly sprayed to the leaves, phytophthora blight or bacterial rot) is listed as “excellent”. In addition, in assay [1], the “Outbreak … on the leaves” value is reported as “significantly decreased”. For the same compound, the “Lesion formation, pepper phytophthora test” value is recorded as “no the lesion formations” in assay [1] (setting [4]) and “no the lesion formations” in assay [1] (sprayed on the leaves, 1 or 0.1 ppm). Besides, the Lesion outbreak rate in assay [1] (0.1 ppm) was 9.3 area %; in assay [1] (1.0 ppm), 3.5 area %.

On to `COC(=O)[C@H](C)NC(=O)[C@@H](N)C(C)C` [Compound 108] (H-Val-Ala-OMe), for which the Lesion outbreak rate in assay [1] (0.1 ppm) turned out to be 14 area %; in assay [1] (1.0 ppm) it was 18 area %.

`CCC(C)C(N)C(=O)NC(C)C(=O)OC` (stereo not drawn) [Compound 109]: the Lesion outbreak rate in assay [1] (0.1 ppm) worked out at 25 area %; in assay [1] (1.0 ppm), 9.4 area %.
